Paper PMC12191596, “Gene Expression and Enzyme Kinetics of Polyphenol Oxidases in Strawberry and Their Possible Involvement in Enzymatic Browning Reactions in Strawberry Nectar” (Foods, 2025)

Tests used:
PPO2 (FaPPO 2) [1] = system: T1, PPO2 (FaPPO 2); test: spectrophotometry, […] nm; assay type: biochemical, Fragaria vesca; settings: 50 mM Tris-HCl pH 7, 0.7 mM SDS, 25 °C
T1 construct: latent PPO, transit peptide removed, C-terminal shielding domain kept, N-terminal 6xHis tag, non-codon-optimized cDNA, pET28, E. coli BL21(DE3)

PPO1 (FaPPO 1) [2] = system: T2, PPO1 (FaPPO 1); test: spectrophotometry, […] nm; assay type: biochemical; settings: 50 mM Tris-HCl pH 7, 0.7 mM SDS, 25 °C
T2 construct: latent PPO, transit peptide removed, C-terminal shielding domain kept, N-terminal 6xHis tag, pET28, E. coli BL21(DE3)

PPO4 (FaPPO 4) [3] = test: spectrophotometry, […] nm; assay type: biochemical, Fragaria vesca; settings: 50 mM Tris-HCl pH 7, 1 mM SDS, 25 °C
PPO1 (FaPPO 1) [4] = system: T2, PPO1 (FaPPO 1); test: spectrophotometry, […] nm; assay type: biochemical; settings: 50 mM Tris-HCl pH 7, 0.7 mM SDS, 25 °C; remark: listed apart in the source
PPO4 (FaPPO 4) [5] = test: spectrophotometry, […] nm; assay type: biochemical, Fragaria vesca; settings: 50 mM Tris-HCl pH 7, 1 mM SDS, 25 °C; remark: listed apart in the source
PPO2 (FaPPO 2) [6] = system: T1, PPO2 (FaPPO 2); test: spectrophotometry, […] nm; assay type: biochemical, Fragaria vesca; settings: 50 mM Tris-HCl pH 7, 0.7 mM SDS, 25 °C; remark: listed apart in the source
PPO4 (FaPPO 4) [7] = test: spectrophotometry, […] nm; assay type: biochemical, Fragaria vesca; settings: 50 mM Tris-HCl pH 7, 1 mM SDS, 25 °C; remark: listed apart in the source
PPO1 (FaPPO 1) [8] = system: T2, PPO1 (FaPPO 1); test: spectrophotometry, […] nm; assay type: biochemical; settings: 50 mM Tris-HCl pH 7, 0.7 mM SDS, 25 °C; remark: listed apart in the source
PPO2 (FaPPO 2) [9] = system: T1, PPO2 (FaPPO 2); test: spectrophotometry, […] nm; assay type: biochemical, Fragaria vesca; settings: 50 mM Tris-HCl pH 7, 0.7 mM SDS, 25 °C; remark: listed apart in the source
PPO4 (FaPPO 4) [10] = test: spectrophotometry, […] nm; assay type: biochemical, Fragaria vesca; settings: 50 mM Tris-HCl pH 7, 1 mM SDS, 25 °C; remark: listed apart in the source
PPO1 (FaPPO 1) [11] = system: T2, PPO1 (FaPPO 1); test: spectrophotometry, […] nm; assay type: biochemical; settings: 50 mM Tris-HCl pH 7, 0.7 mM SDS, 25 °C; remark: listed apart in the source
PPO2 (FaPPO 2) [12] = system: T1, PPO2 (FaPPO 2); test: spectrophotometry, […] nm; assay type: biochemical, Fragaria vesca; settings: 50 mM Tris-HCl pH 7, 0.7 mM SDS, 25 °C; remark: listed apart in the source
PPO2 (FaPPO 2) [13] = system: T1, PPO2 (FaPPO 2); test: spectrophotometry, […] nm, Hill fit; assay type: biochemical, Fragaria vesca; settings: 50 mM Tris-HCl pH 7, 0.7 mM SDS, 25 °C, cooperative
PPO1 (FaPPO 1) [14] = system: T2, PPO1 (FaPPO 1); test: spectrophotometry, […] nm, Hill fit; assay type: biochemical; settings: 50 mM Tris-HCl pH 7, 0.7 mM SDS, 25 °C, cooperative
PPO4 (FaPPO 4) [15] = test: spectrophotometry, […] nm; assay type: biochemical, Fragaria vesca; settings: 50 mM Tris-HCl pH 7, 1 mM SDS, 25 °C; remark: listed apart in the source
PPO1 (FaPPO 1) [16] = system: T2, PPO1 (FaPPO 1); test: spectrophotometry, […] nm; assay type: biochemical; settings: 50 mM Tris-HCl pH 7, 0.7 mM SDS, 25 °C; remark: listed apart in the source
PPO2 (FaPPO 2) [17] = system: T1, PPO2 (FaPPO 2); test: spectrophotometry, […] nm; assay type: biochemical, Fragaria vesca; settings: 50 mM Tris-HCl pH 7, 0.7 mM SDS, 25 °C; remark: listed apart in the source

Structure (SMILES): Oc1cc(O)c2c(c1)O[C@H](c1ccc(O)c(O)c1)[C@@H](O)C2 [Catechin]
- Km (PPO2 (FaPPO 2) [1]): 190 ± 40 µM
- Km (PPO1 (FaPPO 1) [2]): 120 ± 30 µM
- Km (PPO4 (FaPPO 4) [3]): 870 ± 80 µM

Structure (SMILES): Oc1ccccc1O [Catechol]
- Km (PPO1 (FaPPO 1) [4]): 27000 ± 2000 µM
- Km (PPO4 (FaPPO 4) [5]): 39000 ± 12000 µM
- Km (PPO2 (FaPPO 2) [6]): 7500 ± 600 µM

Structure (SMILES): O=C(/C=C/c1ccc(O)c(O)c1)O[C@@H]1C[C@](O)(C(=O)O)C[C@@H](O)[C@H]1O [Chlorogenic acid]
- Km (PPO1 (FaPPO 1) [4]): 2700 ± 400 µM
- Km (PPO4 (FaPPO 4) [5]): 1300 ± 200 µM
- Km (PPO2 (FaPPO 2) [6]): 1300 ± 200 µM

Structure (SMILES): NCCc1ccc(O)c(O)c1 [Dopamine]
- Km (PPO4 (FaPPO 4) [7]): 990 ± 110 µM
- Km (PPO1 (FaPPO 1) [8]): 600 ± 100 µM
- Km (PPO2 (FaPPO 2) [9]): 950 ± 120 µM

Structure (SMILES): N[C@@H](Cc1ccc(O)c(O)c1)C(=O)O [L-DOPA]
- Km (PPO4 (FaPPO 4) [10]): 3200 ± 1600 µM
- Km (PPO1 (FaPPO 1) [11]): 2000 ± 400 µM
- Km (PPO2 (FaPPO 2) [12]): 5700 ± 1900 µM

Structure (SMILES): O=C(CCc1ccc(O)cc1)c1c(O)cc(O)cc1O [Phloretin]
- Km (PPO2 (FaPPO 2) [13]): 600 ± 400 µM
- Km (PPO1 (FaPPO 1) [14]): 82 ± 4 µM

Structure (SMILES): NCCc1ccc(O)cc1 [Tyramine]
- Km (PPO4 (FaPPO 4) [15]): 1300 ± 100 µM
- Km (PPO1 (FaPPO 1) [16]): 500 ± 100 µM
- Km (PPO2 (FaPPO 2) [17]): 600 ± 100 µM
